Reference: PMC8705538, “Discovery of SARS-CoV-2 Nsp14 and Nsp16 Methyltransferase Inhibitors by High-Throughput Virtual Screening” (Pharmaceuticals, 2021)

How the values were obtained:
SARS-CoV-2 nsp14 = SARS-CoV-2 nsp14 (Severe acute respiratory syndrome coronavirus 2, UniProt P0DTD1); assay: biochemical; settings: 100 μM
SARS-CoV-2 nsp16/nsp10 = SARS-CoV-2 nsp16/nsp10 (Severe acute respiratory syndrome coronavirus 2, UniProt P0DTD1); assay: biochemical; settings: 100 μM

| Compound | Percent inhibition at 100 μM, nsp14 (SARS-CoV-2 nsp14) [%] | Percent inhibition at 100 μM, nsp16 (SARS-CoV-2 nsp16/nsp10) [%] |
| --- | --- | --- |
| O=C(Cc1csc(SCC(=O)c2ccccc2)n1)Nc1ccccc1 [Compound 005-296-365] | 27 ±2 | -17 ±4 |
| CCOc1ccccc1OCC(=O)N1CCCC(c2nc3ccccc3s2)C1 (centres unmarked) [Compound 005-679-672] | 6 ±0 | -59 ±2 |
| O=C(CCn1cncn1)N1CCC(c2nc3ccccc3s2)CC1 [Compound 009-436-708] | 2 ±1 | -114 ±6 |
| O=C(CCn1cncn1)N1CCCC1c1nc2ccccc2s1 (centres unmarked) [Compound 009-447-345] | 2 ±0 | 1 ±1 |
| Cc1nc(CC(=O)N2CCCC(c3nc4ccccc4s3)C2)cs1 (centres unmarked) [Compound 021-760-906] | 10 ±2 | 28 ±6 |
| Cn1nccc1CCC(=O)N1CCCC(c2nc3ccccc3s2)C1 (centres unmarked) [Compound 042-575-680] | 8 ±1 | 33 ±9 |
| O=C(CCCn1cncn1)N1CCCC(c2nc3ccccc3s2)C1 (centres unmarked) [Compound 045-938-897] | 7 ±2 | -29 ±5 |
| Cc1csc(C2CCCN(C(=O)CCn3cnc4c(N)ncnc43)C2)n1 (centres unmarked) [Compound 046-114-939] | 15 ±4 | 37 ±13 |
| Cn1cnn(CCC(=O)N2CCCC(c3nc4ccccc4s3)C2)c1=O (centres unmarked) [Compound 046-705-372] | 5 ±3 | 15 ±8 |
| Cn1cc(CCC(=O)N2CCCC(c3nc4ccccc4s3)C2)cn1 (centres unmarked) [Compound 046-706-934] | 5 ±3 | -113 ±16 |
| O=C(CCc1cncnc1)N1CCCC(c2nc3ccccc3s2)C1 (centres unmarked) [Compound 046-723-388] | 5 ±3 | -45 ±13 |
| O=C(O)CCC(=O)Nc1nc2n(n1)C(c1ccccc1)CC(=O)N2 (centres unmarked) [ZINC000000095711] | -16 ±0 | -77 ±13 |
| Nc1ncnc2c1ncn2CC(O)CO (centres unmarked) [ZINC000000370772] | -9 ±12 | -34 ±9 |
| O=C(CC1(O)C(=O)N(Cc2ccc3c(c2)OCO3)c2ccccc21)c1ccc(F)cc1 (centres unmarked) [ZINC000000783765] | -10 ±3 | -3 ±4 |
| CC(=O)Nc1ccn(C2OC(CO)C(O)C2O)c(=O)n1 (centres unmarked) [ZINC000001078602] | -15 ±5 | -9 ±1 |
| NS(=O)(=O)c1ccc(NC2=NC(=O)C(CC(=O)O)S2)cc1 (centres unmarked) [ZINC000001797008] | 0 ±2 | -35 ±10 |
| O=C(Nc1ccc(N2CCOCC2)cc1)c1oc2ccccc2c1CSc1nnc[nH]1 [ZINC000003404544] | 3 ±2 | 6 ±8 |
| CC1=C(C(=O)O)N2C(=O)C(NC(=O)C(N)c3ccc(O)cc3)C2SC1 (centres unmarked) [ZINC000003830391] | -18 ±6 | -8 ±1 |
| CCOc1c(Cl)cc(C(=O)Nc2cccc(C(=O)O)c2)cc1Cl [ZINC000004649202] | -1 ±3 | 14 ±5 |
| NC(=O)Cn1cnc2c(cnn2CCO)c1=O [ZINC000004940485] | 2 ±0 | 6 ±6 |
| NS(=O)(=O)c1ccc(NC(=O)COC(=O)c2n[nH]c3ccccc23)cc1 [ZINC000005360401] | -15 ±7 | 3 ±1 |
| O=C(Cc1nnc(O)c2ccccc12)NCC(O)c1ccccc1 (centres unmarked) [ZINC000009340377] | 5 ±4 | 2 ±5 |
| Cc1ccc(NC(=O)Cn2c(=O)n(CC(=O)NCc3ccco3)c(=O)c3ccccc32)cc1C [ZINC000009617688] | 10 ±6 | -8 ±4 |
| CCN(Cc1ccncc1)C(=O)CC1C(=O)NCCN1CCCc1ccccc1 (centres unmarked) [ZINC000011821342] | 5 ±5 | 17 ±11 |
| CC(C)Cn1c(CNC(=O)c2ccccc2C(F)(F)F)nnc1SCc1ccncc1 [ZINC000012152850] | 2 ±8 | 19 ±6 |
| COc1ccc(CCNC(=O)C2C3C=CC4(CN(c5ccc6c(c5)OCO6)C(=O)C24)O3)cc1 (centres unmarked) [ZINC000012895535] | 5 ±2 | -15 ±6 |
| CC[C@H](C)[C@H](N)C(=O)NS(=O)(=O)OC[C@H]1O[C@@H](n2cnc3c(N)ncnc32)[C@H](O)[C@@H]1O [ZINC000013488353] | 8 ±5 | 34 ±6 |
| COc1ccc(C2=NN(C(=O)CCc3ccc4c(c3)OCO4)C(O)(C(F)(F)F)C2)cc1 (centres unmarked) [ZINC000016448507] | 9 ±4 | 11 ±5 |

| Compound | Percent inhibition at 100 μM, nsp14 (SARS-CoV-2 nsp14) [%] | Percent inhibition at 100 μM, nsp16 (SARS-CoV-2 nsp16/nsp10) [%] |
| --- | --- | --- |
| COc1ccc(N2C(=O)CC(c3c(C)[nH]n(-c4nc5ccccc5s4)c3=O)C2=O)cc1 (centres unmarked) [ZINC000018085229] | 11 ±6 | 17 ±6 |
| CC(C)CC(C(=O)OCC(=O)Nc1cccc(Cl)c1)N1C(=O)C2CC=CCC2C1=O (centres unmarked) [ZINC000019078629] | 8 ±3 | 37 ±9 |
| O=C(CCc1c[nH]c2ccccc12)N1CCCC1c1ccc[nH]1 (centres unmarked) [ZINC000019688789] | 2 ±0 | -10 ±1 |
| O=C(CP(=O)(O)O)N=c1[nH]c2ccc(Cl)cc2s1 [ZINC000020502712] | 7 ±6 | 17 ±7 |
| COc1cccc(C2CC(O)=Nc3c2c(C)nn3-c2ncnc3[nH]cnc23)c1 (centres unmarked) [ZINC000020745418] | -8 ±5 | -7 ±2 |
| O=C(NCc1cccnc1)C1CC(NCc2c(F)cccc2F)CN1Cc1ccccc1 (centres unmarked) [ZINC000020999776] | -2 ±4 | 8 ±5 |
| Cn1c(=O)c(=O)n(CC(=O)NCCN(CCc2ccccc2)Cc2ccco2)c2ccccc21 [ZINC000021649685] | 10 ±9 | 7 ±4 |
| Nc1ncnc2c1ncn2[C@@H]1O[C@H](COS(=O)(=O)NC(=O)c2ccccc2O)[C@@H](O)[C@H]1O [ZINC000028567519] | 28 ±2 | 14 ±3 |
| Cc1nn(C)c2ncc(NC(=O)c3ccccc3-c3ncc(-c4ccc(F)cc4)o3)cc12 [ZINC000032754717] | 14 ±6 | -24 ±9 |
| C=CCn1c(=O)c(=O)n(CC(=O)NCCN2CCN(c3cc(Cl)ccc3C)CC2)c2ccccc21 [ZINC000033268761] | 9 ±3 | 32 ±7 |
| CC1(O)Cc2n[nH]c(O)c2C(c2ccccc2)C1 (centres unmarked) [ZINC000035326963] | 4 ±8 | -2 ±6 |
| O=C(O)c1cc(CN2CC[C@@H](c3ccc4ccccc4c3)[C@H](O)C2)ccc1O [ZINC000065452571] | -3 ±8 | -2 ±5 |
| Cc1ccc(Oc2ncccc2CNC(=O)c2cnc(O)cc2O)cn1 [ZINC000067754517] | 11 ±3 | 39 ±8 |
| CC(=O)c1cccc(OCc2cc(C(=O)NCC(N)=O)n[nH]2)c1 [ZINC000067920483] | 2 ±2 | -1 ±3 |
| CN(C)c1nc2c(c(N(C)C)n1)CCN(C(=O)[C@@H](N)Cc1ccc(O)cc1)C2 [ZINC000071682020] | 12 ±5 | 9 ±8 |
| CN(C)c1nc2c(c(=O)[nH]1)CCN(C(=O)c1n[nH]cc1Cl)C2 [ZINC000072172639] | -1 ±2 | 29 ±5 |
| O=C(CC1(C(=O)O)CC(c2ccc(F)cc2)=NO1)Nc1cccc(C(=O)O)c1 (centres unmarked) [ZINC000072406141] | 14 ±7 | 31 ±8 |
| O=C(c1ccc(Cn2ccnc2)o1)N1CCc2[nH]c3ccc(Cl)cc3c2C1 [ZINC000072429175] | 0 ±4 | 6 ±5 |
| Nc1nc2c(c(=O)[nH]1)CC(CCc1ccc(C(=O)NC(CCC(=O)O)C(=O)O)cc1)CN2 (centres unmarked) [ZINC000077301924] | 5 ±6 | 15 ±10 |
| Cn1nc(CC(=O)NCCCc2nnc3ccccn23)c2ccccc2c1=O [ZINC000095478169] | -6 ±2 | -53 ±8 |
| COc1c(C)c2c(c(O)c1CC=C(C)CCC(=O)Nc1nnc[nH]1)C(=O)OC2 [ZINC000096115284] | 5 ±4 | -68 ±6 |
| O=C(Nc1ccccc1-c1ccccc1)C1CCCN(c2ccc(-n3cncn3)nn2)C1 (centres unmarked) [ZINC000096124096] | 9 ±7 | 10 ±1 |
| CC(C)N(CC1OC(n2cnc3c(N)ncnc32)C(O)C1O)C1CC(CCc2nc3cc(C(C)(C)C)ccc3[nH]2)C1 (centres unmarked) [ZINC000100074350] | 30 ±4 | 68 ±7 |
| Cc1cc(=O)n2c(n1)NC(N1CCOCC1)=NC2c1ccccc1 (centres unmarked) [ZINC000104279901] | -14 ±2 | -33 ±4 |
| O=C(Cc1ccc2c(c1)CCO2)Nc1ccc2nc[nH]c(=O)c2c1 [ZINC000170622294] | -2 ±2 | -6 ±3 |
| O=C(CCc1ccc(O)cc1)NC(c1ccc2c(c1)CCO2)C1CC(O)C1 (centres unmarked) [ZINC000220681335] | 0 ±2 | 10 ±5 |
| O=C(CCc1ccncc1)NC(c1ccccc1)C1CC(O)C1 (centres unmarked) [ZINC000252528037] | 13 ±2 | 36 ±3 |
